Test [1] relates to RPE-Neo or RPE-MYC or RPE-MYC expressing an EGFP-Histone 2B fusion protein. The test is described as follows: MTT assays of cellular proliferation. The test is classed as cell-based. As to conditions: Homo sapiens, min. effective conc., read-out: Proliferative arrest (<50%).
For test [2] the test system is unchanged. The test is described as follows: Phenotypic screening assay (arrest in mitosis, change in DNA content, cell death; GE IN-Cell Analyzer 2000). The format is cell-based. The conditions noted are these: Homo sapiens, compounds 20 nM to 20 μM, 24, 48 or 72 hours.
Setting [3] is: read-out: Min. Effective conc. for Polyploidy (≥10%).
Setting [4] is: min. effective conc., read-out: Cell Death (>30%).
The mark [5] stands for this setting: min. effective conc., read-out: Mitotic Arrest (≥10%).

`CNC(=O)C1=C(O)c2ccccc2N(Cc2ccsc2)C(=O)C1` [Example 71, 5-hydroxy-N-methyl-2-oxo-1-(thiophen-3-ylmethyl)-2,3-dihydro-1H-benzo[b]azepine-4-carboxamide]: the minimal effective concentration in test [1], in test [2] (setting [3]), in test [2] (setting [4]) and in test [2] (setting [5]) was 30 to 1000 µM throughout.

As to `CNC(=O)C1=C(O)c2ccccc2N(Cc2ccccc2)C(=O)C1` [Example 72, 1-benzyl-5-hydroxy-N-methyl-2-oxo-2,3-dihydro-1H-benzo[b]azepine-4-carboxamide], the minimal effective concentration in test [1], in test [2] (setting [3]) and in test [2] (setting [5]) was 30 to 1000 µM throughout.

Turning to `CNC(=O)C1=C(O)c2ccccc2N(Cc2ccncc2)C(=O)C1` [Example 74, 5-hydroxy-N-methyl-2-oxo-1-(pyridin-4-ylmethyl)-2,3-dihydro-1H-benzo[b]azepine-4-carboxamide], the minimal effective concentration in test [1], in test [2] (setting [3]), in test [2] (setting [4]) and in test [2] (setting [5]) was 30 to 1000 µM in each case.

Consider `CNC(=O)C1=C(O)c2ccccc2N(Cc2cccnc2)C(=O)C1` [Example 75, 5-hydroxy-N-methyl-2-oxo-1-(pyridin-3-ylmethyl)-2,3-dihydro-1H-benzo[b]azepine-4-carboxamide], for which the minimal effective concentration in test [1], in test [2] (setting [3]), in test [2] (setting [4]) and in test [2] (setting [5]) was 30 to 1000 µM throughout.

For `CNC(=O)C1=C(O)c2ccccc2N(Cc2ccc(F)cc2)C(=O)C1` [Example 76, 1-(4-fluorobenzyl)-5-hydroxy-N-methyl-2-oxo-2,3-dihydro-1H-benzo[b]azepine-4-carboxamide], the minimal effective concentration in test [1], in test [2] (setting [3]), in test [2] (setting [4]) and in test [2] (setting [5]) was 1 to 10 µM each time.

For the compound `CNC(=O)C1=C(O)c2ccccc2N(Cc2cccc(F)c2)C(=O)C1` [Example 77, 1-(3-fluorobenzyl)-5-hydroxy-N-methyl-2-oxo-2,3-dihydro-1H-benzo[b]azepine-4-carboxamide], the minimal effective concentration in test [1], in test [2] (setting [3]), in test [2] (setting [4]) and in test [2] (setting [5]) was 30 to 1000 µM in each case.

`CNC(=O)C1=C(O)c2ccccc2N(Cc2ccccc2F)C(=O)C1` [Example 78, 1-(2-fluorobenzyl)-5-hydroxy-N-methyl-2-oxo-2,3-dihydro-1H-benzo[b]azepine-4-carboxamide]: the minimal effective concentration in test [1], in test [2] (setting [3]), in test [2] (setting [4]) and in test [2] (setting [5]) was 10 to 30 µM each time.

Turning to `CNC(=O)C1=C(O)c2ccccc2N(Cc2ccc(C)cc2)C(=O)C1` [Example 79, 5-hydroxy-N-methyl-1-(4-methylbenzyl)-2-oxo-2,3-dihydro-1H-benzo[b]azepine-4-carboxamide], the minimal effective concentration in test [1], in test [2] (setting [3]), in test [2] (setting [4]) and in test [2] (setting [5]) was 1 to 10 µM each time.

As for `CNC(=O)C1=C(O)c2ccccc2N(Cc2cccc(C)c2)C(=O)C1` [Example 80, 5-hydroxy-N-methyl-1-(3-methylbenzyl)-2-oxo-2,3-dihydro-1H-benzo[b]azepine-4-carboxamide], the minimal effective concentration in test [1], in test [2] (setting [3]), in test [2] (setting [4]) and in test [2] (setting [5]) was 1 to 10 µM throughout.

For `CNC(=O)C1=C(O)c2ccccc2N(Cc2ccccc2C)C(=O)C1` [Example 81, 5-hydroxy-N-methyl-1-(2-methylbenzyl)-2-oxo-2,3-dihydro-1H-benzo[b]azepine-4-carboxamide], the minimal effective concentration in test [1], in test [2] (setting [3]), in test [2] (setting [4]) and in test [2] (setting [5]) was 30 to 1000 µM each time.

On to `CC(c1ccc(F)cc1)N1C(=O)CCC(=O)c2ccccc21` (stereo not shown) [Example 82, 1-(1-(4-fluorophenyl)ethyl)-3,4-dihydro-1H-benzo[b]azepine-2,5-dione], for which the minimal effective concentration in test [1], in test [2] (setting [3]), in test [2] (setting [4]) and in test [2] (setting [5]) was 30 to 1000 µM throughout.

Regarding `CNC(=O)C1=C(O)c2ccccc2N(Cc2ccc(Cl)cc2)C(=O)C1` [Example 83, 1-(4-chlorobenzyl)-5-hydroxy-N-methyl-2-oxo-2,3-dihydro-1H-benzo[b]azepine-4-carboxamide], the minimal effective concentration in test [1], in test [2] (setting [3]), in test [2] (setting [4]) and in test [2] (setting [5]) was 10 to 30 µM in each case.

`CNC(=O)C1=C(O)c2ccccc2N(Cc2ccc(C(F)(F)F)cc2)C(=O)C1` [Example 84, 5-hydroxy-N-methyl-2-oxo-1-(4-(trifluoromethyl)benzyl)-2,3-dihydro-1H-benzo[b]azepine-4-carboxamide]: the minimal effective concentration in test [1] was 30 to 1000 µM; in test [2] (setting [3]) it was 30 to 1000 µM; in test [2] (setting [4]), 30 to 1000 µM; in test [2] (setting [5]) it was 10 to 30 µM.

Take `CNC(=O)C1=C(O)c2ccccc2N(Cc2ccc(C#N)cc2)C(=O)C1` [Example 85, 1-(4-cyanobenzyl)-5-hydroxy-N-methyl-2-oxo-2,3-dihydro-1H-benzo[b]azepine-4-carboxamide]: the minimal effective concentration in test [1], in test [2] (setting [3]), in test [2] (setting [4]) and in test [2] (setting [5]) was 30 to 1000 µM throughout.

Regarding `CCc1ccc(CN2C(=O)CC(C(=O)NC)=C(O)c3ccccc32)cc1` [Example 86, 1-(4-ethylbenzyl)-5-hydroxy-N-methyl-2-oxo-2,3-dihydro-1H-benzo[b]azepine-4-carboxamide], the minimal effective concentration in test [1], in test [2] (setting [3]), in test [2] (setting [4]) and in test [2] (setting [5]) was 1 to 10 µM in each case.

`CNC(=O)C1=C(O)c2ccccc2N(Cc2ccc(C(C)C)cc2)C(=O)C1` [Example 87, 5-hydroxy-1-(4-isopropylbenzyl)-N-methyl-2-oxo-2,3-dihydro-1H-benzo[b]azepine-4-carboxamide]: the minimal effective concentration in test [1], in test [2] (setting [3]), in test [2] (setting [4]) and in test [2] (setting [5]) was 30 to 1000 µM throughout.

Regarding `CCCCc1ccc(CN2C(=O)CC(C(=O)NC)=C(O)c3ccccc32)cc1` [Example 88], the minimal effective concentration in test [1], in test [2] (setting [3]), in test [2] (setting [4]) and in test [2] (setting [5]) was 30 to 1000 µM in each case.

For `CNC(=O)C1CC(=O)N(Cc2ccc(-c3ccccc3)cc2)c2ccccc2C1=O` (stereo not shown) [Example 89, 1-([1,1′-biphenyl]-4-ylmethyl)-5-hydroxy-N-methyl-2-oxo-2,3-dihydro-1H-benzo[b]azepine-4-carboxamide], the minimal effective concentration in test [1], in test [2] (setting [3]), in test [2] (setting [4]) and in test [2] (setting [5]) was 30 to 1000 µM throughout.

On to `CNC(=O)C1=C(O)c2ccccc2N(Cc2ccc(C(C)=O)cc2)C(=O)C1` [Example 90, 1-(4-acetylbenzyl)-5-hydroxy-N-methyl-2-oxo-2,3-dihydro-1H-benzo[b]azepine-4-carboxamide], for which the minimal effective concentration in test [1], in test [2] (setting [3]), in test [2] (setting [4]) and in test [2] (setting [5]) was 30 to 1000 µM throughout.

Turning to `CNC(=O)C1=C(O)c2ccccc2N(Cc2ccc(OC)cc2)C(=O)C1` [Example 91, 5-hydroxy-1-(4-methoxybenzyl)-N-methyl-2-oxo-2,3-dihydro-1H-benzo[b]azepine-4-carboxamide], the minimal effective concentration was 10 to 30 µM in test [1], 10 to 30 µM in test [2] (setting [3]), 10 to 30 µM in test [2] (setting [4]) and 1 to 10 µM in test [2] (setting [5]).

As to `CNC(=O)C1=C(O)c2ccccc2N(Cc2cccc(OC)c2)C(=O)C1` [Example 92, 5-hydroxy-1-(3-methoxybenzyl)-N-methyl-2-oxo-2,3-dihydro-1H-benzo[b]azepine-4-carboxamide], the minimal effective concentration in test [1], in test [2] (setting [3]), in test [2] (setting [4]) and in test [2] (setting [5]) was 10 to 30 µM each time.

As to `CNC(=O)C1=C(O)c2ccccc2N(Cc2ccccc2OC)C(=O)C1` [Example 93, 5-hydroxy-1-(2-methoxybenzyl)-N-methyl-2-oxo-2,3-dihydro-1H-benzo[b]azepine-4-carboxamide], the minimal effective concentration in test [1], in test [2] (setting [3]), in test [2] (setting [4]) and in test [2] (setting [5]) was 10 to 30 µM in each case.

As to `CNC(=O)C1CC(=O)N(Cc2ccc(OC(F)F)cc2)c2ccccc2C1=O` (stereo not shown) [Example 94, 1-(4-(difluoromethoxy)benzyl)-5-hydroxy-N-methyl-2-oxo-2,3-dihydro-1H-benzo[b]azepine-4-carboxamide], the minimal effective concentration in test [1], in test [2] (setting [3]), in test [2] (setting [4]) and in test [2] (setting [5]) was 30 to 1000 µM throughout.

The values above are taken from patent US20240270695A1, “COMPOUNDS, COMPOSITIONS AND METHODS OF TREATING DISORDERS” (Chengdu Anticancer Bioscience LTD, priority 2021, published 2024).
